Experimental data from US8680159B2, “Bradykinin 1 receptor modulating compounds” (Gruenenthal GmbH, priority 2010, dated 2014).

molecular target: T1, B1R receptor of the rat (CHO K1 cells stably transfected with the B1R gene of the rat) (Rattus norvegicus, UniProt P97583); assay: Functional study on the bradykinin receptor 1 (B1R), Ca2+ fluorescence (Fluo-4) FLIPR/Novostar assay, rB1R cells; type: cell-based; settings: 10 μM
T1 construct: expressed in transfected cells; host or cells: CHO K1 cells (Chinese hamster ovary), stably transfected
T1 sequence (P97583 1-337): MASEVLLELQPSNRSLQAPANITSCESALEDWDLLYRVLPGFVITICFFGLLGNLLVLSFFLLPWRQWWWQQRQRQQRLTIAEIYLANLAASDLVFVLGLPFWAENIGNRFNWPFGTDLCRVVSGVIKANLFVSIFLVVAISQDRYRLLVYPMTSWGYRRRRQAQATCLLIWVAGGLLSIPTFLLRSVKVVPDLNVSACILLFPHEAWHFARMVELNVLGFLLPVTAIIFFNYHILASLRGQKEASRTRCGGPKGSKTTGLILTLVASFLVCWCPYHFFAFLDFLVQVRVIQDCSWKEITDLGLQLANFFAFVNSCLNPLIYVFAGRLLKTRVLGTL
Experimental: The agonistic or antagonistic action of substances can be quantified on the bradykinin receptor 1 (B1R) of the species human and rat using ectopically expressing cell lines (CHO K1 cells) and with the aid of a Ca^2+-sensitive dye (Fluo-4) using a fluorescent imaging plate reader (FLIPR). The indication in % activation is based on the Ca^2+ signal after addition of Lys-Des-Arg^9-bradykinin (0.5 nM) or Des-Arg^9-bradykinin (100 nM). Antagonists lead to suppression of the Ca^2+ influx after the addition of the agonist. % Inhibition compared with the maximum achievable inhibition is indicated.
The agonistic or antagonistic action of substances can be determined on the bradykinin receptor 1 (B1R) of the species human and rat using the following assay. According to this assay, the increase in intracellular Ca^2+ following administration of a B1R agonist is quantified with the aid of a Ca^2+-sensitive dye (Fluo-4 type, Molecular Probes Europe BV, Leiden, Netherlands) using a Fluorescent Imaging Plate Reader (FLIPR, Molecular Devices, Sunnyvale, USA) and/or using a Novostar (BMG Labtech GmbH, Offenburg, Germany).
Chinese hamster ovary cells (CHO K1 cells) which have been stably transfected with the human B1R gene (hB1R cells) or with the B1R gene of the rat (rB1R cells) are used. For functional studies, the cells are plated out on black 96-well plates having a clear base (BD Biosciences, Heidelberg, Germany or Greiner, Frickenhausen, Germany) in a density of 20,000-35,000 cells/well. The cells are left overnight at 37° C. and with 5% CO2 in culture medium (hB1R cells: Nutrient Mixture Ham's F12, Gibco Invitrogen GmbH, Karlsruhe, Germany or DMEM, Sigma-Aldrich, Taufkirchen, Germany; rB1R cells: D-MEM/F12, Gibco Invitrogen GmbH, Karlsruhe, Germany), with 10 vol. % FBS (fetal bovine serum, Gibco Invitrogen GmbH, Karlsruhe, Germany or PAN Biotech GmbH, Aidenbach, Germany). On the following day, the cells are loaded for 60 minutes at 37° C. with 2.13 μM Fluo-4 (Molecular Probes Europe BV, Leiden, Netherlands) in HBSS buffer (Hank's buffered saline solution, Gibco Invitrogen GmbH, Karlsruhe, Germany) […] (Sigma-Aldrich, Taufkirchen, Germany) and 10 mM HEPES (Sigma-Aldrich, Taufkirchen, Germany). The plates are then washed twice with HBSS buffer, and HBSS buffer additionally containing 0.1% BSA (bovine serum albumin; Sigma-Aldrich, Taufkirchen, Germany), 5.6 mM glucose and 0.05% gelatin (Merck KGaA, Darmstadt, Germany) is added to the plates. After incubation for a further 20 minutes at room temperature, the plates are inserted into the FLIPR or Novostar for Ca^2+ measurement. Alternatively, washing is carried out with buffer A (15 mM HEPES, 80 mM NaCl, 5 mM KCl, 1.2 mM CaCl2, 0.7 mM MgSO4, 2 g/l glucose, 2.5 mM probenecid) followed by loading with buffer A with added 2.5 μM Fluo-4 and 0.025% Pluronic F127 (Sigma-Aldrich, Taufkirchen, Germany). The cells are then washed twice with buffer A and incubated for 30 minutes at room temperature with buffer A additionally containing 0.05% BSA and 0.05% gelatin and are then inserted into the FLIPR or Novostar for Ca^2+ measurement. The Ca^2+-dependent fluorescence is measured before and after the addition of substances (λex=488 nm, λem=540 nm). Quantification is carried out by measuring the highest fluorescence intensity (FC, fluorescence counts) over time.
The FLIPR protocol consists of 2 substance additions, which are pipetted in the FLIPR. In the case of measurements using the Novostar, only the second substance addition is pipetted in the device. Both devices measure the fluorescence intensity over time. Test substances (10 μM) are first pipetted onto the cells and the intracellular Ca^2+ increase is compared with the control (hB1R: Lys-Des-Arg^9-bradykinin>=50 nM; rB1R: Des-Arg^9-bradykinin>=1 μM). This gives the % activation, based on the Ca^2+ signal after addition of Lys-Des-Arg^9-bradykinin (>=50 nM) or Des-Arg^9-bradykinin (>=1 μM). […]

% Inhibition (r-B1R) at 10 μM	Structure (SMILES)
110%	CN(C(=O)c1ccc2c(c1)C(NC(=O)c1c(Cl)cccc1C(F)(F)F)CCC2)C1CCN(c2ccncc2)CC1 (stereo not shown) [CC_H-249, 8-[[2-Chloro-6-(trifluoromethyl)-benzoyl]amino]-N-methyl-N-(1-pyridin-4-yl-piperidin-4-yl)-5,6,7,8-tetrahydro-naphthalene-2-carboxylic acid amide]

same assay, conditions: CHO-K1, 10 μM, read-out: % Inhibition (r-B1R) at 10 μM

Structure (SMILES)	inhibition at 10 µM
CN(C(=O)c1ccc2c(c1)C(NC(=O)c1cc(C(F)(F)F)ccc1Cl)CCC2)C1CCN(c2ccncc2)CC1 (stereo not shown) [CC_H-247, 8-[[2-Chloro-5-(trifluoromethyl)-benzoyl]amino]-N-methyl-N-(1-pyridin-4-yl-piperidin-4-yl)-5,6,7,8-tetrahydro-naphthalene-2-carboxylic acid amide]	112%
CN(C(=O)c1ccc2c(c1)C(NC(=O)c1cccc(C(F)(F)F)c1Cl)CCC2)C1CCN(c2ccncc2)CC1 (stereo not shown) [CC_H-254, 8-[[2-Chloro-3-(trifluoromethyl)-benzoyl]amino]-N-methyl-N-(1-pyridin-4-yl-piperidin-4-yl)-5,6,7,8-tetrahydro-naphthalene-2-carboxylic acid amide]	111%
CN(C(=O)c1ccc2c(c1)C(NC(=O)Nc1c(Cl)cccc1Cl)CCC2)C1CCN(c2ccncc2)CC1 (stereo not shown) [CC_H-257, 8-[[(2,6-Dichloro-phenyl)-carbamoyl]amino]-N-methyl-N-(1-pyridin-4-yl-piperidin-4-yl)-5,6,7,8-tetrahydro-naphthalene-2-carboxylic acid amide]	107%
CN(C(=O)c1ccc2c(c1)C(NC(=O)Nc1cc(Cl)ccc1Cl)CCC2)C1CCN(c2ccncc2)CC1 (stereo not shown) [CC_H-259, 8-[[(2,5-Dichloro-phenyl)-carbamoyl]amino]-N-methyl-N-(1-pyridin-4-yl-piperidin-4-yl)-5,6,7,8-tetrahydro-naphthalene-2-carboxylic acid amide]	100%
CN(C(=O)c1ccc2c(c1)C(NC(=O)Nc1cc(Cl)cc(Cl)c1)CCC2)C1CCN(c2ccncc2)CC1 (stereo not shown) [CC_H-260, 8-[[(3,5-Dichloro-phenyl)-carbamoyl]amino]-N-methyl-N-(1-pyridin-4-yl-piperidin-4-yl)-5,6,7,8-tetrahydro-naphthalene-2-carboxylic acid amide]	61%
CN(C(=O)c1ccc2c(c1)C(NC(=O)Nc1cc(C(F)(F)F)ccc1Cl)CCC2)C1CCN(c2ccncc2)CC1 (stereo not shown) [CC_H-261, 8-[[[2-Chloro-5-(trifluoromethyl)-phenyl]-carbamoyl]amino]-N-methyl-N-(1-pyridin-4-yl-piperidin-4-yl)-5,6,7,8-tetrahydro-naphthalene-2-carboxylic acid amide]	103%
CN(C(=O)c1ccc2c(c1)C(NC(=O)Nc1ccc(Cl)cc1Cl)CCC2)C1CCN(c2ccncc2)CC1 (stereo not shown) [CC_H-262, 8-[[(2,4-Dichlorophenyl)-carbamoyl]amino]-N-methyl-N-(1-pyridin-4-yl-piperidin-4-yl)-5,6,7,8-tetrahydro-naphthalene-2-carboxylic acid amide]	82%
CN(C(=O)c1ccc2c(c1)C(NC(=O)Nc1ccc(F)c(Cl)c1)CCC2)C1CCN(c2ccncc2)CC1 (stereo not shown) [CC_H-265, 8-[[(3-Chloro-4-fluoro-phenyl)-carbamoyl]amino]-N-methyl-N-(1-pyridin-4-yl-piperidin-4-yl)-5,6,7,8-tetrahydro-naphthalene-2-carboxylic acid amide]	105%

Now from value to compound:

inhibition at 10 µM	Structure (SMILES)
111%	Cc1ccc(F)c(C(=O)NC2CCCc3ccc(C(=O)N(C)C4CCN(c5ccncc5)CC4)cc32)c1Cl (stereo not shown) [CC_H-248, 8-[(2-Chloro-6-fluoro-3-methyl-benzoyl)amino]-N-methyl-N-(1-pyridin-4-yl-piperidin-4-yl)-5,6,7,8-tetrahydro-naphthalene-2-carboxylic acid amide]
103%	CN(C(=O)c1ccc2c(c1)C(NC(=O)C1CC1)CCC2)C1CCN(c2ccncc2)CC1 (stereo not shown) [CC_H-250, 8-(Cyclopropanecarbonylamino)-N-methyl-N-(1-pyridin-4-yl-piperidin-4-yl)-5,6,7,8-tetrahydro-naphthalene-2-carboxylic acid amide]
111%	CN(C(=O)c1ccc2c(c1)C(NC(=O)CC(C)(C)C)CCC2)C1CCN(c2ccncc2)CC1 (stereo not shown) [CC_H-251, 8-(3,3-Dimethyl-butanoylamino)-N-methyl-N-(1-pyridin-4-yl-piperidin-4-yl)-5,6,7,8-tetrahydro-naphthalene-2-carboxylic acid amide]
107%	COCC(=O)NC1CCCc2ccc(C(=O)N(C)C3CCN(c4ccncc4)CC3)cc21 (stereo not shown) [CC_H-252, 8-[(2-Methoxy-acetyl)amino]-N-methyl-N-(1-pyridin-4-yl-piperidin-4-yl)-5,6,7,8-tetrahydro-naphthalene-2-carboxylic acid amide]
110%	CC(=O)NC1CCCc2ccc(C(=O)N(C)C3CCN(c4ccncc4)CC3)cc21 (stereo not shown) [CC_H-253, 8-Acetylamino-N-methyl-N-(1-pyridin-4-yl-piperidin-4-yl)-5,6,7,8-tetrahydro-naphthalene-2-carboxylic acid amide]
104%	CN(C(=O)c1ccc2c(c1)C(NC(=O)Nc1ccccc1Cl)CCC2)C1CCN(c2ccncc2)CC1 (stereo not shown) [CC_H-255, 8-[[(2-Chlorophenyl)-carbamoyl]amino]-N-methyl-N-(1-pyridin-4-yl-piperidin-4-yl)-5,6,7,8-tetrahydro-naphthalene-2-carboxylic acid amide]
96%	CN(C(=O)c1ccc2c(c1)C(NC(=O)Nc1cccc(Cl)c1)CCC2)C1CCN(c2ccncc2)CC1 (stereo not shown) [CC_H-256, 8-[[(3-Chlorophenyl)-carbamoyl]amino]-N-methyl-N-(1-pyridin-4-yl-piperidin-4-yl)-5,6,7,8-tetrahydro-naphthalene-2-carboxylic acid amide]
106%	CN(C(=O)c1ccc2c(c1)C(NC(=O)Nc1cccc(Cl)c1Cl)CCC2)C1CCN(c2ccncc2)CC1 (stereo not shown) [CC_H-258, 8-[[(2,3-Dichloro-phenyl)-carbamoyl]amino]-N-methyl-N-(1-pyridin-4-yl-piperidin-4-yl)-5,6,7,8-tetrahydro-naphthalene-2-carboxylic acid amide]
63%	Cc1ccc(NC(=O)NC2CCCc3ccc(C(=O)N(C)C4CCN(c5ccncc5)CC4)cc32)c(C)c1 (stereo not shown) [CC_H-266, 8-[[(2,4-Dimethyl-phenyl)-carbamoyl]amino]-N-methyl-N-(1-pyridin-4-yl-piperidin-4-yl)-5,6,7,8-tetrahydro-naphthalene-2-carboxylic acid amide]
110%	CN(C(=O)NC1CCCc2ccc(C(=O)N(C)C3CCN(c4ccncc4)CC3)cc21)c1ccccc1Cl (stereo not shown) [CC_H-268, 8-[[(2-Chlorophenyl)-methyl-carbamoyl]amino]-N-methyl-N-(1-pyridin-4-yl-piperidin-4-yl)-5,6,7,8-tetrahydro-naphthalene-2-carboxylic acid amide]
